Test results as given in patent publication US4401827A, “Novel acyl-derivatives of carnitine and process for their preparation” (Sigma-Tau, priority 1978, dated 1983).
Where two headings read alike, the source gives them in different places.

Legend:
[1] = system: arrhythmia induced by Aconitine in mice; experiment: arrhythmia induced by Aconitine in mice; format: in vivo; conditions: for antiarrhythmic activity (in words): Aconitine, mice; for change in vivo at 40 mg/kg / change in vivo at 150 mg/kg: Mus musculus, iv
Procedure: The antiarrhythmic effect of the compounds was also investigated in mice according to the P. W. Nwangwu, T. Holcslow procedure (4). Using Aconitine (5 mg/ml) as arrhythmogenic agent, the changes in the cardiac rhythm of the animals were recorded and the onset time of initial arrhythmia and/or of ventricular tachycardia were used as End point.
Antiarrhythmic agents display an increase in the latency time of initial ECG change.
(4) P. W. Nvangvu, T. L. Holcslow, Arch. Int. Pharmacodyn. 229, 219 (1977)
on the arrhythmia induced by Aconitine (5 γ/ml) in mice.
% increase of the time to onset of initial cardiac arrythmia

rat's ventricle strip = experiment: antiarrhythmic effect, isolated rat ventricle strip test; conditions: for antiarrhythmic properties (in words): isolated rat ventricle method; for inhibition at 1 µM / activation at 1 µM: Rattus norvegicus, concentration 1·10^-6 M; for inhibition at 1 µM: decrease; for activation at 1 µM: increase
Text: (2) M. Libonati and G. Segre, Archivio Italiano di Scienze Farmacologiche. Serie XIII, Vol. X, pag. 3, (1960)
effect of some acyl derivatives (concentration 1 · 10^-6
of the formula (1) on the rat's ventricle strip test.
% variation versus basal value.

rabbit hearts = experiment: cardiokinetic effect on isolated rabbit heart (Langendorff) after anoxia; conditions: equal concentrations in perfusion fluid, Student's t test versus controls
Procedure: The cardiokinetic effect on isolated heart was also investigated as follows. Rabbit hearts isolated by the Langendorff method were perfused with oxygenized ringer solution at 38.2° C. The isometric contractions, electrocardiogram and coronary flow were recorded using a "Battaglia-Rangoni" polygraph. By removing the oxygen from the perfusion fluid, metabolic damage was induced in the cardiac muscle, up to an 80% reduction in the cardiac contractile force.
Under these conditions of prolonged anoxia the aerobic glycolysis of the myocardium is slowed down, accompanied by the storage of acid catabolites due to both the accumulation of pyruvic acid and its conversion to lactic acid which cannot be utilized because of the depression of pyridine enzymes, such as LDH (lactodehydrogenase). This has repercussions on the anaerobic glycolysis affecting an ever increasing number of enzymes, accompanied by a progressive and increasingly critical exhaustion of the myocardium. Thus a whole series of cardiac muscle fatigue levels occurs which can be observed by the behavior of the examined parameters, namely the contractile force, coronary flow, heart rate and cardiac rhythm. As soon as the contractile force was reduced by 80%, the perfusion fluid was once again oxygenized either without adding other compounds (controls) or with the addition of the compounds under examination.
Table 2 below gives the percentage values of the contractile force of the heart, showing a positive inotropic effect, calculated after 10 minutes from the interruption of the anoxic period (myocardial restoration).
of some acyl derivatives of formula (I) on the contractile
force of rabbit's heart. (Details are given in the text)

[2] = acute toxicity (tolerance) i.p. in mice, Weil method; conditions: mouse, in vivo, ip, Weil method (N = 5, K = 4)
Text: The tolerance of the Acyl-carnitines of the formula (I), as well as their salts administered by intraperitoneal route was investigated in mice using the Weil Method (1).
LD50, mg kg^-1 i.p. in mice,
of some acyl derivatives of formula (1).
Weil method (N = 5, K = 4)

F.F.A. plasma levels = experiment: plasma free fatty acids in 17-hrs fasted rats; format: in vivo; conditions: single i.p. 500 mg kg^-1, 17-hrs fasted rats
Procedure: In 17-hrs fasted rats the F.F.A. (fatty-free acids) splasms levels were reduced by a single i.p. administration with 500 mg kg^-s of d,l dipropyl ACAR; l dipropyl ACAR (ACAR=acetylcarnitine); d,l exanoyl CAR (CAR=carnitine) and d,l pyruvyl CAR.
The decrease, compared with untreated animals, was -35%, -29%, -41% and -65% respectively.

[3] = system: plasma cholesterol, triglycerides and lipoproteins in rat; experiment: plasma cholesterol, triglycerides and lipoproteins in rat treated with olive oil; format: in vivo; conditions: for Lipoproteins, VLDL / Lipoproteins, HDL / Lipoproteins, LDL / cholesterol / triglycerides: olive oil 15 ml kg^-1 orally, compound ip, mean ± SEM, N = 8; for Lipoproteins, VLDL: oil control 15.84 ± 1.53; for Lipoproteins, HDL: oil control 24.18 ± 2.15; for Lipoproteins, LDL: oil control 57.38 ± 2.25; for cholesterol: oil control 88.33 ± 2.96; for triglycerides: oil control 213.66 ± 28.68
Procedure: In the rats the lipoproteic pattern altered due to an oil administration by gavage, was restored after a single treatment with d,l dipropyl ACAR; d,l ethyl exanoyl CAR; d,l 3 bromopropionyl CAR and d,l pyruvyl CAR.
The effect of some acyl derivatives of formula (I) on plasma cholesterol,
triglycerides and lipoproteins in rat
treated with olive oil, 15 ml kg^-1 orally. Mean Values ± SEM
Student "t" test .quadrature., Δ and indicate respectively a non
significant difference, a P ≤ 1% and 1%.

[4] = read-out: latency time increase % of controls, arrhythmias
[5] = read-out: latency time increase % of controls, tachycardia
[6] = read-out: maximed frequency (- %), % variation versus basal value
[7] = read-out: whole excitability (- %), % variation versus basal value
[8] = read-out: refractory period (+ %), % variation versus basal value
[9] = read-out: rheobase (+ %), % variation versus basal value

Row | SMILES | antiarrhythmic properties (in words) (rat's ventricle strip) | positive inotropic effect (in words) (rabbit hearts) | LD50 [2] [mg/kg] | inhibition at 1 µM (rat's ventricle strip; [6]) [%] | inhibition at 1 µM (rat's ventricle strip; [7]) [%] | activation at 1 µM (rat's ventricle strip; [8]) [%] | activation at 1 µM (rat's ventricle strip; [9]) [%] | decrease of F.F.A. plasma levels compared with untreated animals (F.F.A. plasma levels) [%] | other results
1 | CCCC(CCC)C(=O)OC(CC(=O)[O-])C[N+](C)(C)C (stereo not shown) [dipropyl acetyl] | most clear out antiarrhythmic properties | greater positive inotropic effect than that of the other compounds under examination | – | – | – | – | – | – | antiarrhythmic activity (in words) [1]: markedly exhibited
2 | CCCC(CCC)C(=O)O[C@H](CC(=O)[O-])C[N+](C)(C)C [l dipropyl ACAR] | – | – | 294 | 25.3 | 58.2 | 39.1 | 55.1 | -29 | change in vivo at 40 mg/kg [1, 4]: 60%; change in vivo at 40 mg/kg [1, 5]: 40%
3 | CC(=O)C(=O)OC(CC(=O)[O-])C[N+](C)(C)C (racemic) [d,l pyruvyl CAR] | most clear out antiarrhythmic properties | greater positive inotropic effect than that of the other compounds under examination | 3900 | 80.2 | 95.5 | 50.2 | 48.2 | -65 | antiarrhythmic activity (in words) [1]: markedly exhibited; change in vivo at 40 mg/kg [1, 4]: 80%; change in vivo at 40 mg/kg [1, 5]: 60%; Lipoproteins, VLDL [3]: 10.15 ± 1.03%; Lipoproteins, HDL [3]: 33.26 ± 2.17%; Lipoproteins, LDL [3]: 50.15 ± 2.33%; cholesterol [3]: 70.26 ± 2.74 mg/100 ml; triglycerides [3]: 85.14 ± 7.22 mg/100 ml; increase of HDL and decrease of LDL and VLDL (in words) ([3]; rats, single treatment): most marked effect; lipoproteic pattern altered due to oil administration (in words) ([3]; rats, single treatment): restored; triglycerides and cholesterol plasma levels increased after oil (in words) ([3]; rats, single treatment): active against the triglycerides and cholesterol plasma levels
4 | CCCCCC(=O)OC(CC(=O)[O-])C[N+](C)(C)C (stereo not shown) [d,l exanoyl CAR] | – | – | – | – | – | – | – | -41 | –
5 | C[N+](C)(C)CC(CC(=O)[O-])OC(=O)C=Cc1ccccc1 (racemic) [d,l cinnamoyl CAR] | – | greater positive inotropic effect than that of the other compounds under examination | 1120 | 29.8 | 75.3 | 40.1 | 49.6 | – | change in vivo at 150 mg/kg [1, 4]: 20%; change in vivo at 150 mg/kg [1, 5]: 8%
6 | CC(C)(C)C(=O)OC(CC(=O)[O-])C[N+](C)(C)C (stereo not shown) [pivaloyl] | most clear out antiarrhythmic properties | greater positive inotropic effect than that of the other compounds under examination | – | – | – | – | – | – | –
7 | CCCC(CCC)C(=O)OC(CC(=O)[O-])C[N+](C)(C)C (racemic) [d,l dipropyl ACAR] | – | – | 1700 | 23.2 | 50.6 | 34.3 | 24.2 | -35 | change in vivo at 150 mg/kg [1, 4]: 65%; change in vivo at 150 mg/kg [1, 5]: 55%; Lipoproteins, VLDL [3]: 13.26 ± 2.03%; Lipoproteins, HDL [3]: 28.13 ± 3.27%; Lipoproteins, LDL [3]: 50.12 ± 2.08%; cholesterol [3]: 75.15 ± 3.11 mg/100 ml; triglycerides [3]: 121.50 ± 11.13 mg/100 ml; lipoproteic pattern altered due to oil administration (in words) ([3]; rats, single treatment): restored
